The text below walks through data of ChEMBL document CHEMBL1201862, “PubChem BioAssay data set” (2004).

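How tested: cells in 96-well plates exposed to compound for 48 hours at five concentrations. At the GI50, growth is halved.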 Activity calls are given as the source filed them. Cut-off read from the data, not from the text of the source: active = GI50 up to about 1.1 µM and inactive = higher.

Test systems include 786-0; A498; A549; ACHN; CCRF-CEM; HCT-15; HOP-62; Hs-578T; K562; MDA-MB-435; MDA-N; MOLT-4; Malme-3M; NCI-H23; NCI/ADR-RES; OVCAR-3; OVCAR-4; RXF 393; SNB-19; U-251.
What all share (experiment): NCI anticancer screen, dose series, 48 h

In the case of `O=[N+]([O-])C1=Cc2cc(Cl)ccc2OC1c1cccc2ccccc12` (stereo not given), the GI50 was 0.396 µM (active) in the assay on 786-0; 1.86 µM (inactive) in the assay on A498; 1.7 µM (inactive) in the assay on A549; 1.52 µM (inactive) in the assay on ACHN; 0.191 µM (active) in the assay on CCRF-CEM; 0.37 µM with HCT-15. Also, the GI50 was 0.871 µM (active) in the assay on HOP-62; 0.692 µM (active) in the assay with Hs-578T; 0.371 µM (active) with K562; 1.44 µM (inactive) in the assay on MDA-MB-435; 1 µM (active) in the assay on MDA-N; 0.251 µM (active) in the assay on MOLT-4. Moreover, the GI50 with Malme-3M was 1.57 µM (inactive); with NCI-H23 it was 0.847 µM (active); in the assay on NCI/ADR-RES, 2.07 µM (inactive); with OVCAR-3, 0.603 µM (active); in the assay on OVCAR-4, 1.57 µM (inactive); in the assay on RXF 393, 0.405 µM (active). Besides, the GI50 in the assay with SNB-19 was 1.65 µM (inactive); in the assay with U-251, 1.56 µM (inactive).

As to `CCOC(=O)CCC(NC(=O)c1ccc(Nc2cnc3ccc(C(F)(F)F)cc3n2)cc1)C(=O)OCC` (stereo not given), the GI50 is 10.5 µM (inactive) with 786-0; 26.4 µM (inactive) with A498; > 34.6 µM (inactive) in the assay on A549; 24.9 µM (inactive) in the assay with ACHN; > 100 µM (inactive) in the assay on CCRF-CEM; above 100 µM with HCT-15. Moreover, the GI50 was 14.1 µM (inactive) in the assay with HOP-62; 6.79 µM (inactive) in the assay with Hs-578T; > 100 µM (inactive) with K562; > 80.9 µM (inactive) with MDA-MB-435; > 100 µM (inactive) in the assay with MDA-N; 2.2 µM (inactive) in the assay on MOLT-4. Also, the GI50 was 41 µM (inactive) in the assay with Malme-3M; 35 µM (inactive) with NCI-H23; 11 µM (inactive) in the assay on NCI/ADR-RES; > 100 µM (inactive) in the assay on OVCAR-3; 8.2 µM (inactive) in the assay on OVCAR-4; 15 µM (inactive) in the assay with RXF 393. Also, the GI50 was 13 µM (inactive) in the assay on SNB-19 and 11.6 µM (inactive) in the assay with U-251.

In the case of `CCC(C)(C)c1ccc(Oc2cccc(C(=O)O)c2)cc1`, the GI50 was 89.3 µM (inactive) in the assay with 786-0; 53.8 µM (inactive) in the assay on A498; 38.2 µM (inactive) in the assay on A549; 58.9 µM (inactive) in the assay on ACHN; 28.9 µM (inactive) in the assay on CCRF-CEM; 39.5 µM in the assay with HCT-15. In addition, the GI50 in the assay with HOP-62 is 64.7 µM (inactive); with Hs-578T, 44 µM (inactive); in the assay with K562, 32.6 µM (inactive); in the assay with MDA-MB-435, 45 µM (inactive); in the assay on MDA-N it was 47.6 µM (inactive); with MOLT-4, 29.9 µM (inactive). Moreover, the GI50 with Malme-3M was 44.6 µM (inactive); in the assay on NCI-H23, 52.2 µM (inactive); in the assay on NCI/ADR-RES, 50.1 µM (inactive); in the assay on OVCAR-3, 26.7 µM (inactive); with OVCAR-4, 44.3 µM (inactive); with RXF 393, 98.6 µM (inactive). Further, the GI50 in the assay with SNB-19 is 85.5 µM (inactive); with U-251, 41.8 µM (inactive).

Consider `CCN(CC)C(=S)SS(=O)(=O)c1ccccc1[N+](=O)[O-]`, for which the GI50 in the assay with 786-0 was 18.6 µM (inactive); in the assay with A498, > 56.6 µM (inactive); in the assay on A549, 14.7 µM (inactive); in the assay with ACHN, 43.8 µM (inactive); with CCRF-CEM it was 2.51 µM (inactive); in the assay with HCT-15, 57.9 µM. Moreover, the GI50 in the assay on HOP-62 was 22 µM (inactive); in the assay with Hs-578T, 31.1 µM (inactive); with K562, 11.7 µM (inactive); in the assay on MDA-MB-435, 21.7 µM (inactive); in the assay on MDA-N, 38.9 µM (inactive); with MOLT-4 it was 0.415 µM (active). The GI50 with Malme-3M was 10.2 µM (inactive); in the assay on NCI-H23 it was > 54 µM (inactive); in the assay with NCI/ADR-RES, 41.3 µM (inactive); in the assay on OVCAR-3 it was 22.2 µM (inactive); with OVCAR-4 it was 44.3 µM (inactive); in the assay with RXF 393, 20.8 µM (inactive). Besides, the GI50 in the assay on SNB-19 is > 53.7 µM (inactive); in the assay with U-251 it was 21.7 µM (inactive).

For `COC(=O)c1nc2n(n1)-c1ccccc1C(=O)N(Cc1ccccc1)C2`, the GI50 in the assay with 786-0 was > 100 µM (inactive); in the assay on A498 it was > 100 µM (inactive); in the assay with A549 it was > 100 µM (inactive); with ACHN, > 100 µM (inactive); with CCRF-CEM, > 100 µM (inactive); in the assay on HCT-15, above 100 µM. Besides, the GI50 in the assay with HOP-62, in the assay on Hs-578T, with K562, with MDA-MB-435, with MDA-N and in the assay with MOLT-4 was > 100 µM (inactive) throughout. In addition, the GI50 in the assay on Malme-3M, in the assay on NCI-H23, with NCI/ADR-RES, with OVCAR-3, in the assay with OVCAR-4 and in the assay on RXF 393 was > 100 µM (inactive) in each case. Further, the GI50 in the assay with SNB-19 and in the assay with U-251 was > 100 µM (inactive) each time.

Regarding `COc1cccc2c1C(=O)c1c(O)c3c(c(O)c1C2=O)CC(O)(C(=O)CO)CC3OC1CC(N2CCOCC2C#N)C(O)C(C)O1` (stereo not given), the GI50 with 786-0 was < 0.0001 µM (active); in the assay with A498 it was > 0.01 µM (active); with A549, < 0.0001 µM (active); in the assay with ACHN, < 0.0001 µM (active); in the assay on CCRF-CEM it was < 0.0001 µM (active); with HCT-15, below 0.0001 µM. Moreover, the GI50 with HOP-62 was < 0.0001 µM (active); with Hs-578T, > 0.01 µM (active); in the assay with K562, < 0.0001 µM (active); with MDA-MB-435, < 0.0001 µM (active); with MDA-N, < 0.0001 µM (active); in the assay on MOLT-4, < 0.0001 µM (active). The GI50 with Malme-3M was < 0.0001 µM (active); in the assay on NCI-H23, < 0.0001 µM (active); with NCI/ADR-RES, < 0.0001 µM (active); in the assay with OVCAR-3, < 0.0001 µM (active); in the assay on OVCAR-4 it was > 0.01 µM (active); in the assay on RXF 393 it was > 0.01 µM (active). Also, the GI50 in the assay on SNB-19 and in the assay with U-251 was < 0.0001 µM (active) each time.

In the case of `O=C1/C(=C\c2c(-c3ccccc3)[nH]n(-c3ccccc3)c2=O)C(c2ccccc2)=NN1c1ccccc1`, the GI50 with 786-0 was > 100 µM (inactive); in the assay with A498, > 100 µM (inactive); in the assay on A549 it was > 100 µM (inactive); with ACHN it was > 100 µM (inactive); with CCRF-CEM, 79.4 µM (inactive); in the assay with HCT-15 it was above 100 µM. In addition, the GI50 was > 100 µM (inactive) with HOP-62; > 100 µM (inactive) in the assay with Hs-578T; 87.5 µM (inactive) in the assay with K562; > 100 µM (inactive) in the assay on MDA-MB-435; > 100 µM (inactive) in the assay with MDA-N; > 100 µM (inactive) in the assay with MOLT-4. In addition, the GI50 in the assay with Malme-3M, in the assay with NCI-H23, in the assay on NCI/ADR-RES, in the assay on OVCAR-3, in the assay on OVCAR-4 and in the assay on RXF 393 was > 100 µM (inactive) throughout. Besides, the GI50 with SNB-19 and in the assay on U-251 was > 100 µM (inactive) each time.

On to `N#Cc1c(O)nc2[nH]nc(/N=N\c3c(O)ccc4ccccc34)c2c1-c1ccc(Cl)cc1`, for which the GI50 in the assay with 786-0 was 0.0689 µM (active); with A498, 0.117 µM (active); in the assay with A549, 0.312 µM (active); in the assay on ACHN it was 0.296 µM (active); in the assay with CCRF-CEM, < 0.0371 µM (active); in the assay with HCT-15 it was 0.019 µM. Also, the GI50 with HOP-62 is 0.164 µM (active); in the assay on Hs-578T, 0.968 µM (active); in the assay with K562, 1.63 µM (inactive); in the assay on MDA-MB-435, 0.789 µM (active); in the assay on MDA-N it was 0.637 µM (active); with MOLT-4, 0.171 µM (active). For the same compound, the GI50 in the assay with Malme-3M is 0.143 µM (active); with NCI-H23, 0.47 µM (active); in the assay on NCI/ADR-RES, 0.0975 µM (active); with OVCAR-3 it was 0.0667 µM (active); in the assay on OVCAR-4, 0.241 µM (active); in the assay on RXF 393, 0.198 µM (active). Also, the values for the GI50 in the assay on SNB-19 and in the assay with U-251 were 0.211 µM (active) and 0.124 µM (active), respectively.
